These results are taken from patent US20260274814A1, “THIENYL COMPOUNDS FOR THE TREATMENT OF A CENTRAL NERVOUS SYSTEM DISEASE OR DISORDER” (Coreterra Therapeutics, Inc., priority 2023, published 2026).

In this test the test system is mice. The test can be described thus: Neuropharmacological Assay (SmartCube): automated behavioral signature of compound-treated mice compared with a database of reference drug classes. It counts as in vivo. The note with it: for AD / AG / AN / AP / AX / CE / HL / MS / PS / SH / UK: 3.0 mg/kg i.p., 15 min before test; for minimal effective dose: Mus musculus, ip. The gist of the method:
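Probabilities of matching each neuropharmacological class (e.g. anxiolytic, antidepressant) come from algorithmic analysis of digitally recorded behaviour, reported for 3.0 mg/kg. Compounds were given intraperitoneally in a Pharmasolve/PEG/propylene glycol vehicle 15 min pre-test. Minimal effective dose is the lowest dose reaching 45% or more total activity.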

[1] abbreviates: dose having 45% or more total activity in SmartCube, i.p., if only one dose was tested, that dose is shown, hydrochloride.
Where [2] appears, read: probability that activity matches this class of agents.
[3] abbreviates: dose having 45% or more total activity in SmartCube, i.p., if only one dose was tested, that dose is shown, read-out: MED (minimal effective dose).
The mark [4] stands for this setting: dose having 45% or more total activity in SmartCube, i.p., if only one dose was tested, that dose is shown.
Where [5] appears, read: probability that activity matches this class of agents, hydrochloride, 3 mg/kg.
[6] abbreviates: SmartCube class probability, hydrochloride, 3 mg/kg.

Structures can show the parent of a compound that is named as a salt. Where two headings read alike, the source gives them in different places.

As for `Cl.FC1(F)CC(NC2CCc3cscc3C2)C1` (single isomer, unassigned) [Compound 127, N-(3,3-difluorocyclobutyl)-4,5,6,7-tetrahydro-2-benzothiophen-5-amine hydrochloride], the “MED (minimal effective dose)” value under setting [1] is recorded as 30 mpk. Under setting [2], the AD entry is “ND (^ <4%)”, the AG result was “ND (^ <4%)”, the AN entry is recorded as “ND (^ <4%)” and the AP result is given as “ND (^ <4%)”. Moreover, under setting [2], the AX result is reported as “ND (^ <4%)”, the CE result is recorded as “ND (^ <4%)”, the HL entry is listed as “ND (^ <4%)” and the MS entry is “ND (^ <4%)”. Further, under setting [2], the PS result is on record as “ND (^ <4%)”, the SH entry was “ND (^ <4%)” and the UK result is “ND (^ <4%)”.

With `c1scc2c1CCC(NC1COC1)C2` (single isomer, unassigned) [Compound 128, N-(4,5,6,7-tetrahydro-2-benzothiophen-5-yl)oxetan-3-amine], the minimal effective dose under setting [3] amounted to 10 mg/kg. Moreover, under setting [2], the AD result is “ND (^ <4%)”, the AG result was “ND (^ <4%)”, the AN entry is recorded as “ND (^ <4%)” and the AP entry is on record as “ND (^ <4%)”. In addition, under setting [2], the AX result is “ND (^ <4%)”, the CE result is on record as “ND (^ <4%)”, the HL entry is recorded as “ND (^ <4%)” and the MS result is “ND (^ <4%)”. For the same molecule, under setting [2], the PS entry is given as “ND (^ <4%)”, the SH result is “ND (^ <4%)” and the UK entry is “+ (≥4%)”.

Take `c1scc2c1CCC(NC1COC1)C2` (single isomer, unassigned) [Compound 129, N-(4,5,6,7-tetrahydro-2-benzothiophen-5-yl)oxetan-3-amine]: the “MED (minimal effective dose)” value under setting [4] was determined as 10 mpk. For the same molecule, under setting [2], the AD result was “ND (^ <4%)” and the UK entry is “+ (≥4%)”.

Consider `CNC1CCc2scc(Cl)c2C1` (single isomer, unassigned) [Compound 131, 3-chloro-N-methyl-4,5,6,7-tetrahydrobenzothiophen-5-amine hydrochloride], for which the minimal effective dose under setting [3] came to 3 mg/kg. Under setting [2], the AG result is “ND (^ <4%)”, the AN entry is “ND (^ <4%)”, the AX result was “ND (^ <4%)” and the CE result is given as “ND (^ <4%)”. In addition, under setting [2], the HL entry is recorded as “ND (^ <4%)” and the SH result was “ND (^ <4%)”. In addition, under setting [5], the AD entry is reported as “+ (≥4%)”, the AP result is “++ (≥24%)”, the MS entry is “+ (≥4%)” and the PS entry is given as “ND (^ <4%)”. The UK entry under setting [5] is “ND (^ <4%)”.

With `CNC1CCc2scc(Cl)c2C1` (single isomer, unassigned) [Compound 132, 3-chloro-N-methyl-4,5,6,7-tetrahydrobenzothiophen-5-amine hydrochloride], the “MED (minimal effective dose)” value under setting [4] is recorded as 3 mpk. Besides, under setting [2], the AG entry is “ND (^ <4%)”, the AN entry is “ND (^ <4%)”, the AX entry was “ND (^ <4%)” and the CE result is recorded as “ND (^ <4%)”. Further, under setting [2], the HL entry was “ND (^ <4%)” and the SH result is listed as “ND (^ <4%)”. Under setting [5], the AD result is listed as “ND (^ <4%)”, the AP result is reported as “+ (≥4%)”, the MS result is listed as “ND (^ <4%)” and the PS entry is given as “+ (≥4%)”. The UK entry under setting [5] is given as “++ (≥24%)”.

As to `CNC1CCc2csc(C#N)c2C1` (single isomer, unassigned) [Compound 133, 6-(methylamino)-4,5,6,7-tetrahydro-2-benzothiophene-1-carbonitrile hydrochloride], under setting [1], the “MED (minimal effective dose)” value is on record as less than 1 mpk. Under setting [2], the AG entry is given as “ND (^ <4%)”, the AN entry is “ND (^ <4%)”, the AX entry was “ND (^ <4%)” and the CE result is on record as “ND (^ <4%)”. Under setting [2], the HL entry is listed as “ND (^ <4%)”, the MS result is “ND (^ <4%)”, the PS entry was “ND (^ <4%)” and the SH result is “ND (^ <4%)”. Besides, under setting [5], the AD entry is on record as “+++ (≥49%)”, the AP entry is “+ (≥4%)” and the UK entry is on record as “ND (^ <4%)”.

`CNC1CCc2csc(C#N)c2C1` (single isomer, unassigned) [Compound 134, 6-(methylamino)-4,5,6,7-tetrahydro-2-benzothiophene-1-carbonitrile hydrochloride]: the “MED (minimal effective dose)” value under setting [1] is reported as 3 mpk. Further, under setting [2], the AG result is listed as “ND (^ <4%)”, the AN entry is recorded as “ND (^ <4%)”, the AX result is on record as “ND (^ <4%)” and the CE entry is “ND (^ <4%)”. Also, under setting [2], the HL result was “ND (^ <4%)”, the MS entry is reported as “ND (^ <4%)”, the PS entry was “ND (^ <4%)” and the SH entry is “ND (^ <4%)”. Besides, under setting [5], the AD entry is listed as “ND (^ <4%)”, the AP entry was “ND (^ <4%)” and the UK entry is reported as “+++ (≥49%)”.

Regarding `NC1COc2ccsc2C1` (single isomer, unassigned) [Compound 135, 6,7-dihydro-5H-thieno[3,2-b]pyran-6-amine hydrochloride], the minimal effective dose under setting [3] was 3 mg/kg. Moreover, under setting [2], the AD result is on record as “ND (^ <4%)”, the AG entry is listed as “ND (^ <4%)”, the AN result is “ND (^ <4%)” and the AX result is “ND (^ <4%)”. Moreover, under setting [2], the CE entry is reported as “ND (^ <4%)”, the HL result is “ND (^ <4%)”, the MS entry is given as “ND (^ <4%)” and the PS entry is “ND (^ <4%)”. Under setting [5], the AP entry is on record as “+ (≥4%)”, the SH result is given as “++ (≥24%)” and the UK entry is “ND (^ <4%)”.

In the case of `NC1COc2ccsc2C1` (single isomer, unassigned) [Compound 136, 6,7-dihydro-5H-thieno[3,2-b]pyran-6-amine hydrochloride], the “MED (minimal effective dose)” value under setting [1] is given as more than 3 mpk. Moreover, under setting [2], the AD result is given as “ND (^ <4%)”, the AG result is “ND (^ <4%)”, the AN entry is on record as “ND (^ <4%)” and the AX result was “ND (^ <4%)”. Besides, under setting [2], the CE entry was “ND (^ <4%)”, the HL entry is “ND (^ <4%)”, the MS result was “ND (^ <4%)” and the PS result is listed as “ND (^ <4%)”. In addition, under setting [5], the AP result is on record as “ND (^ <4%)”, the SH result is “ND (^ <4%)” and the UK result is “+ (≥4%)”.

`CNC1CCc2scc(F)c2C1` (single isomer, unassigned) [Compound 137, 3-fluoro-N-methyl-4,5,6,7-tetrahydrobenzothiophen-5-amine hydrochloride]: under setting [3], the minimal effective dose worked out at 1 mg/kg. Under setting [2], the AD entry was “ND (^ <4%)”, the AG result is on record as “ND (^ <4%)”, the AN entry is listed as “ND (^ <4%)” and the CE result was “ND (^ <4%)”. Moreover, under setting [2], the HL entry is reported as “ND (^ <4%)”, the MS entry is recorded as “ND (^ <4%)”, the PS entry is listed as “ND (^ <4%)” and the SH result was “ND (^ <4%)”. Besides, under setting [2], the UK entry is listed as “ND (^ <4%)”. Moreover, under setting [5], the AP result is recorded as “++++ (≥74%)” and the AX result is given as “ND (^ <4%)”.

Take `CNC1CCc2scc(F)c2C1` (single isomer, unassigned) [Compound 138, 3-fluoro-N-methyl-4,5,6,7-tetrahydrobenzothiophen-5-amine hydrochloride]: the “MED (minimal effective dose)” value under setting [4] came out at 1 mpk. Moreover, under setting [2], the AD result is reported as “ND (^ <4%)”, the AG entry is “ND (^ <4%)”, the AN entry is recorded as “ND (^ <4%)” and the CE entry is recorded as “ND (^ <4%)”. Further, under setting [2], the HL result is listed as “ND (^ <4%)”, the MS entry is listed as “ND (^ <4%)”, the PS result is “ND (^ <4%)” and the SH entry is “ND (^ <4%)”. Moreover, under setting [2], the UK entry was “ND (^ <4%)”. Moreover, under setting [5], the AP result is on record as “+++ (≥49%)” and the AX entry is given as “++ (≥24%)”.

Take `Cc1csc2c1CC(N)CC2` (single isomer, unassigned) [Compound 143, 3-methyl-4,5,6,7-tetrahydrobenzothiophen-5-amine hydrochloride]: the minimal effective dose (minimal effective dose: dose having 45% or more total activity in SmartCube, i.p., if only one dose tested, that dose is shown, read-out: MED) came out at 1 mg/kg. Further, under “SmartCube class probability”, the AG result is recorded as “ND (^ <4%)”, the AN entry is on record as “ND (^ <4%)”, the AP result is listed as “ND (^ <4%)” and the AX result is recorded as “ND (^ <4%)”. Where the note is “SmartCube class probability”, the CE result is given as “ND (^ <4%)” and the MS result is given as “ND (^ <4%)”. In addition, under setting [6], the AD result is “+ (≥4%)”, the HL result was “+ (≥4%)”, the PS result is recorded as “++ (≥24%)” and the SH result is listed as “+ (≥4%)”. Under setting [6], the UK entry was “ND (^ <4%)”.

With `Cc1csc2c1CC(N)CC2` (single isomer, unassigned) [Compound 144, 3-methyl-4,5,6,7-tetrahydrobenzothiophen-5-amine hydrochloride], where the note is “SmartCube class probability”, the AG entry is reported as “ND (^ <4%)”, the AN entry is listed as “ND (^ <4%)”, the AP result was “ND (^ <4%)” and the AX entry is reported as “ND (^ <4%)”. Moreover, for the setting “SmartCube class probability”, the CE entry was “ND (^ <4%)” and the MS entry is listed as “ND (^ <4%)”. In addition, under setting [6], the AD entry is “ND (^ <4%)”, the HL result is “ND (^ <4%)”, the PS entry is “ND (^ <4%)” and the SH result was “ND (^ <4%)”. For the same molecule, the UK result under setting [6] was “++++ (≥74%)”. For the same molecule, the MED (minimal effective dose: dose having 45% or more total activity in SmartCube, i.p., if only one dose tested, that dose is shown) was 1 mpk.
